Results as given in patent US9533952B2, “N-prop-2-ynyl carboxamide derivatives and their use as TRPA1 antagonists” (Orion Corporation, priority 2012, dated 2017).

biological target: TRPA1 (Homo sapiens, UniProt O75762); test: Determination of TRPA1 activity in vitro (TRPA1 antagonism in vitro); type: cell-based; conditions: procedure of Wei et al., Anesthesiology 111 (2009) 147-154
Sequence (O75762 whole entry): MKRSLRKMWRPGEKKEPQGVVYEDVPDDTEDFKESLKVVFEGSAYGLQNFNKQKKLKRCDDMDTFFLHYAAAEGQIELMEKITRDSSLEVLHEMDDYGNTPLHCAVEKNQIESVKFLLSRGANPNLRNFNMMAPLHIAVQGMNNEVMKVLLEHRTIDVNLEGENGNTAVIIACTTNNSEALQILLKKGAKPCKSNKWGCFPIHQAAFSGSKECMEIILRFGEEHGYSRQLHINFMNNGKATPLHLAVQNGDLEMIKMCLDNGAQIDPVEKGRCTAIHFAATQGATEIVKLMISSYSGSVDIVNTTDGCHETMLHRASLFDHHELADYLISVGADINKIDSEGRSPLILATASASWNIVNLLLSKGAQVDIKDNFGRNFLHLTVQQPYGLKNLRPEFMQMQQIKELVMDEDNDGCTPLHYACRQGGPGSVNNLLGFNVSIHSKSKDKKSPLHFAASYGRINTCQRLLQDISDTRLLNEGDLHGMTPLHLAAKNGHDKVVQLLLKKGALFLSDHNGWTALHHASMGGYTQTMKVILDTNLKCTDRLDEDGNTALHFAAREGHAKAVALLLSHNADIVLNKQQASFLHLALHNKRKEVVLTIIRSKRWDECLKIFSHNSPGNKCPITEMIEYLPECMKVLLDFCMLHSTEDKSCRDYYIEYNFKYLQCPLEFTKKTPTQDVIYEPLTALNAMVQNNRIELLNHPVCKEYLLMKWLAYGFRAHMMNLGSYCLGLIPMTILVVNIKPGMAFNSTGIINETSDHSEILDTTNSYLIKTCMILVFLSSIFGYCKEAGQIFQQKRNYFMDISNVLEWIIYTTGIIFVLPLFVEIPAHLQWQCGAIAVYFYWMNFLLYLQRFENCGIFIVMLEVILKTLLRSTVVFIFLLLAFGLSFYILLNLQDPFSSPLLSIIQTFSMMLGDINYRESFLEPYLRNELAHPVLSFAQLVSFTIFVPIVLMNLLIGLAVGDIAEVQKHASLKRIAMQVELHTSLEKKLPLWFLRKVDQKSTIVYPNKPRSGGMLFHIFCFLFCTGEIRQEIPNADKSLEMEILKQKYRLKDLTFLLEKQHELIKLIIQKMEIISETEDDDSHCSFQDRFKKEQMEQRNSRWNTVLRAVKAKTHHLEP

| Molecule | IC50 |
| --- | --- |
| 5-Bromo-2-(ethylamino)-N-(2-methylbut-3-yn-2-yl)nicotinanilide [Example 153] | 10400 nM |
| 5-Chloro-N-(2-methylbut-3-yn-yl)-2-(2,2,2-trifluoroethylamino)-nicotinamide [Example 34] | 500 nM |
| C#CC(C)(C)NC(=O)c1cc(Cl)ccc1NCCC [Example 3, 5-Chloro-N-(2-methylbut-3-yn-2-ylbut-3)-2-(propylamino)benzamide] | 1100 nM |
| C#CC(C)(C)NC(=O)c1cc(Cl)ccc1NC(C)C [Example 4, 5-Chloro-2-(isopropylamino)-N-(2-methylbut-3-yn-2-yl)benzamide] | 4700 nM |
| C#CC(C)(C)NC(=O)c1cc2c(cc1NCCC(F)(F)F)OCCO2 [Example 6, N-(2-Methylbut-3-yn-2-yl)-7-(3,3,3-trifluoropropylamino)-2,3-dihydrobenzo[b][1,4]dioxine-6-carboxamide] | 11800 nM |
| C#CC(C)(C)NC(=O)c1cc2c(cc1NCC(C)C)OCCO2 [Example 9, 7-(Isobutylamino)-N-(2-methylbut-3-yn-2-yl)-2,3-dihydrobenzo[b][1,4]dioxine-6-carboxamide] | 11200 nM |
| C#CC(C)(C)NC(=O)c1cnc(C(F)(F)F)nc1NCCC(F)(F)F [Example 11, N-(2-Methylbut-3-yn-2-yl)-2-(trifluoromethyl)-4-(3,3,3-trifluoropropylamino)pyrimidine-5-carboxamide] | 3700 nM |
| C#CC(C)(C)NC(=O)c1cc(C(F)(F)F)ccc1NCCC(F)(F)F [Example 12, N-(2-Methylbut-3-yn-2-yl)-5-(trifluoromethyl)-2-(3,33-trifluoropropylamino) benzamide] | 500 nM |
| C#CC(C)(C)NC(=O)c1ccc(Cl)cc1NCCC [Example 13, 4-Chloro-N-(2-methylbut-3-yn-2-yl)-2-(propylamino)benzamide] | 800 nM |
| C#CC(C)(C)NC(=O)c1cc(Cl)ccc1NCC(F)(F)F [Example 14, 5-Chloro-N-(2-methylbut-3-yn-2-yl)-2-(2,2,2-trifluoroethylamino)-benzamide] | 1200 nM |
| C#CC(C)(C)NC(=O)c1cccc(F)c1NCCC [Example 16, 3-Fluoro-N-(2-methylbut-3-yn-2-yl)-2-(propylamino)benzamide] | 10800 nM |
| C#CC(C)(C)NC(=O)c1cc(F)c(F)cc1NC1CCC1 [Example 17, 2-(Cyclobutylamino)-4,5-difluoro-N-(2-methylbut-3-yn-2-yl)benzamide] | 1200 nM |
| C#CC(C)(C)NC(=O)c1cc(C(F)(F)F)ccc1NCC(F)(F)C(F)(F)F [Example 18, N-(2-Methylbut-3-yn-2-yl)-2-(2,2,3,3,3-pentafluoropropylamino)-5-(trifluoromethyl)benzamide] | 300 nM |
| C#CC(C)(C)NC(=O)c1ccccc1NCC(F)(F)C(F)(F)F [Example 19, N-(2-Methylbut-3-yn-2-yl)-2-(2,2,3,3,3-pentafluoropropylamino)-benzamide] | 500 nM |
| C#CC(C)(C)NC(=O)c1cccc(F)c1NC1CCC1 [Example 21, 2-(Cyclobutylamino)-3-fluoro-N-(2-methylbut-3-yin-2-yl)benzamide] | 5200 nM |
| C#CC(C)(C)NC(=O)c1cc(F)ccc1NCC(F)(F)F [Example 22, 5-Fluoro-N-(2-methylbut-3-yn-2-yl)-2-(2,2,2-trifluoroethylamino)-benzamide] | 7200 nM |
| C#CC(C)(C)NC(=O)c1cc(C(F)(F)F)ccc1NC1CCC1 [Example 23, 2-(Cyclobutylamino)-N-(2-methylbut-3-yn-2-yl)-5-(trifluoromethyl)-benzamide] | 100 nM |
| C#CC(C)(C)NC(=O)c1cc(F)ccc1NC1CCC1 [Example 24, 2-(Cyclobutylamino)-5-fluoro-N-(2-methylbut-3-yn-2-yl)benzamide] | 1300 nM |
| C#CC(C)(C)NC(=O)c1cc(C(F)(F)F)cnc1NC(C)C [Example 28, 2-(Isopropylamino)-N-(2-methylbut-3-yn-2-yl)-5-(trifluoromethyl)-nicotinamide] | 1200 nM |
| C#CC(C)(C)NC(=O)c1cc(F)cnc1NCC(F)(F)C(F)(F)F [Example 29, 5-Fluoro-N-(2-methylbut-3-yn-2-yl)-2-(2,2,3,3-pentafluoropropyl-amino)nicotinamide] | 400 nM |
| C#CC(C)(C)NC(=O)c1cc(F)ccc1NCC(F)(F)C(F)(F)F [Example 31, 5-Fluoro-N-(2-methylbut-3-yn-2-yl)-2-(2,2,3,3,3-pentafluoropropylamino) benzamide] | 2600 nM |

The remaining lines, values ahead:

| IC50 | Molecule |
| --- | --- |
| 1900 nM | C#CC(C)(C)NC(=O)c1cc(F)cnc1NCCC(F)(F)F [Example 1, 5-Fluoro-N-(2-methylbut-3-yn-2-yl)-2-(3,3,3-trifluoropropylamino)-nicotinamide] |
| 300 nM | C#CC(C)(C)NC(=O)c1cc(C(F)(F)F)cnc1NCCC(F)(F)F [Example 2, N-(2-Methylbut-3-yn-2-yl)-5-(trifluoromethyl)-2-(3,3,3-trifluoropropylamino) nicotinamide] |
| 5100 nM | C#CC(C)(C)NC(=O)c1cc(Cl)ccc1NCC(F)F [Example 5, 5-Chloro-2-(2,2-difluoroethylamino)-N-(2-methylbut-3-yn-2-yl)benzamide] |
| 2900 nM | C#CC(C)(C)NC(=O)c1cc2c(cc1NCC(C)C)OCO2 [Example 7, 6-(Isobutylamino)-N-(2-methylbut-3-yn-2-yl)benzo[d][1,3]dioxole-5-carboxamide] |
| 13000 nM | C#CC(C)(C)NC(=O)c1cc2c(cc1NCC(C)C)OCCCO2 [Example 8, 8-(Isobutylamino)-N-(2-methylbut-3 yn-2-yl)-3,4-dihydro-2H-benzo[b][1,4]dioxepine-7-carboxamide] |
| 1500 nM | C#CC(C)(C)NC(=O)c1cc(C(F)(F)F)ccc1NCC(F)F [Example 10, 2-(2,2-Difluoroethylamino)-N-(2-methylbut-3yn-2-yl)-5-(trifluoromethyl)benzamide] |
| 3000 nM | C#CC(C)(C)NC(=O)c1cccc(F)c1NCCC(F)(F)F [Example 15, 3-Fluoro-N-(2-methylbut-3-yn-2-yl)-2-(3,3,3-trifluoropropylamino)-benzamide] |
| 1400 nM | C#CC(C)(CC)NC(=O)c1cc(F)cnc1NCC(F)F (stereo not shown) [Example 20, 2-(2,2-Difluoroethylamino)-5-fluoro-N-(3-methylpent-1-yn-3-yl)nicotinamide] |
| 3000 nM | C#CC(C)(C)NC(=O)c1cc(F)cnc1NC1CCC1 [Example 25, 2-(Cyclobutylamino)-5-fluoro-N-(2-methylbut-3-yn-2-yl)nicotinamide] |
| 3300 nM | C#CC(C)(C)NC(=O)c1cc(Cl)cnc1NC(C)C [Example 26, 5-Chloro-2-(isopropylamino)-N-(2-methylbut-3-yn-2-yl)-nicotinamide] |
| 700 nM | C#CC(C)(C)NC(=O)c1cc(Cl)cnc1NC1CCC1 [Example 27, 5-Chloro-2-(cyclobutylamino)-N-(2-methylbut-3-yn-2-yl)nicotinamide] |
| 300 nM | C#CC(C)(C)NC(=O)c1cc(C)ccc1NCC(F)(F)C(F)(F)F [Example 30, 5-Methyl-N-(2-methylbut-3-yn-2-yl)-2-(2,2,3,3,3-pentafluoropropyl-amino)benzamide] |
| 3800 nM | C#CC(C)(C)NC(=O)c1cc(Cl)cnc1NCC(F)F [Example 32, 5-Chloro-2-(2,2-difluoroethylamino)-N-(2-methylbut-3-yn-2-yl)nicotinamide] |
